Assay results published in patent US12377104B1, “Methods for treating a fatty liver disease” (Madrigal Pharmaceuticals, Inc., priority 2024, dated 2025).

What was measured:
[1] = test system: adults with biopsy-confirmed NASH and fibrosis stage F1B, F2, or F3; assay: MAESTRO-NASH: sensitivity analyses of primary endpoints (consensus, multiple imputation, GEE, tipping point, paired biopsies); type: in vivo, human; conditions: for Fibrosis improvement at Week 52, % / Fibrosis improvement at Week 52, no. / NASH resolution at Week 52, % / NASH resolution at Week 52, no.: GEE analysis; for Difference in percentage of responders, CMH, resmetirom group - placebo, NASH resolution / Difference in percentage of responders, CMH, resmetirom group - placebo, fibrosis improvement / OR of resmetirom group to placebo, NASH resolution / OR of resmetirom group to placebo, fibrosis improvement: GEE model
Procedure: Consensus reads of digitized images of glass slides by the two central pathologists were conducted in cases where the two pathologists scores disagreed as to whether there was a response for either NASH resolution (ballooning 0,1; 2-point NAS reduction and no worsening of fibrosis) OR ≥1 stage fibrosis reduction with no worsening of NAS (primary endpoints) OR a 2-stage reduction in fibrosis with no worsening of NAS. The study pathologists remained blinded to all clinical data, patient ID, and slide/image identity or time of biopsy. Study personnel remain blinded to patient level data and detailed group analyses. In total 387 total assessments took place requiring four Zoom meetings between the pathologists.
Tipping Point Analyses: This analysis imputed missing placebo responses for NASH resolution (in increments from 0% to 100% placebo imputation) and fibrosis response (in increments from 0% up to 35% placebo imputation) at Week 52 as successful responses in order to determine how many missing responses (which were counted in the primary analysis labels as non-responders) could be imputed before losing statistical significance.
Multiple Imputation Analysis: Multiple imputation analyses were conducted where data for patients with missing response at Week 52 were imputed under the missing at random assumption. Data for patients with missing response data at Week 52 were imputed under the missing at random assumption by running a simulation (100 times) which produces a correlated pair of binary 0/1 data for each patient that represents the patient's response status for each pathologist. The statistics were then calculated for each imputation using the same approach as for the primary endpoint. The normalized results from each dataset were combined using Rubin's rule. (Table 17).
General Estimating Equation (GEE) Model Analysis: A generalized estimation equation (GEE) analysis was performed as a sensitivity analysis. This approach treated the biopsy scores from the two pathologists as repeated measures (i.e. correlated binary outcomes) within a patient. Baseline diabetes status, fibrosis stage and interaction term between pathologist and treatment were also included in the model.
Summary of Observed Cases Using In-window Week 52 Paired Liver Biopsies: Supportive analyses were performed on patients with in-window paired Week 52 biopsies. Missing Week 52 biopsies were not imputed.

CYP2C8 = biological target: T1, CYP2C8 (Homo sapiens, UniProt P10632); assay: In vitro metabolism by CYP enzymes; type: in vitro ADME
T1 sequence (P10632 1-490): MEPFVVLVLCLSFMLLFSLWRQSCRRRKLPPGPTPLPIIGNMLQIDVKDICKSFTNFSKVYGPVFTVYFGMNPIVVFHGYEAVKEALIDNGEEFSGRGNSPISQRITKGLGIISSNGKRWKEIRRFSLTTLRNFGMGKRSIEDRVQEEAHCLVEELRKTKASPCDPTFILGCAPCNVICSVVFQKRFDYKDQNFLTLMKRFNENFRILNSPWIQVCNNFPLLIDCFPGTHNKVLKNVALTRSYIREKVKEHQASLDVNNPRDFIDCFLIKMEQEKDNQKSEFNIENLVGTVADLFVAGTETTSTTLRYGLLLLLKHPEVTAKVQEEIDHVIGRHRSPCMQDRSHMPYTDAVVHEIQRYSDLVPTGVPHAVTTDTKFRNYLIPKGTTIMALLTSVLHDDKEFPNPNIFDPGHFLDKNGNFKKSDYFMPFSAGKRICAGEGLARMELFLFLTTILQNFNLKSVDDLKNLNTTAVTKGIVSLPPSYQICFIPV

[2] = 80 mg (N = 258), in window including a baseline and Week 52 biopsy
[3] = 80 mg (n = 316), (1, 1) = responder per pathologist A and B
[4] = 80 mg (n = 316), Week 52, tipping point analysis, active patients with missing response = non-responders
[5] = 80 mg, (0, 0) = non-responder per both pathologists
[6] = 80 mg, (0, 1) = responder per pathologist B only
[7] = 80 mg, (1, 0) = responder per pathologist A only
[8] = 100 mg (N = 248), in window including a baseline and Week 52 biopsy
[9] = 100 mg (n = 321), (1, 1) = responder per pathologist A and B
[10] = 100 mg (n = 321), Week 52, tipping point analysis, active patients with missing response = non-responders
[11] = 100 mg, (0, 0) = non-responder per both pathologists
[12] = 100 mg, (0, 1) = responder per pathologist B only
[13] = 100 mg, (1, 0) = responder per pathologist A only
[14] = in window including a baseline and Week 52 biopsy
[15] = in-window including a baseline and Week 52 biopsy
[16] = tipping point, Placebo-0% imputed responders (Primary Analysis)
[17] = tipping point, Placebo-10% imputed responders
[18] = tipping point, Placebo-20% imputed responders
[19] = tipping point, Placebo-25% imputed responders
[20] = tipping point, Placebo-30% imputed responders
[21] = tipping point, Placebo-35% imputed responders
[22] = tipping point, Placebo-60% imputed responders
[23] = tipping point, Placebo-67% imputed responders
[24] = tipping point, Placebo-90% imputed responders
[25] = tipping point, Placebo-100% imputed responders

CC(C)c1cc(Oc2c(Cl)cc(-n3nc(C#N)c(=O)[nH]c3=O)cc2Cl)n[nH]c1=O [Resmetirom, 2-(3,5-dichloro-4-((5-isopropyl-6-oxo-1,6-dihydropyridazin-3-yl)oxy)phenyl)-3,5-dioxo-2,3,4,5-tetrahydro-1,2,4-triazine-6-carbonitrile]
% Response, Fibrosis improvement [1, 2]: 29.7%
% Response, NASH resolution [1, 2]: 31.8%
% Response, NASH resolution OR fibrosis improvement ([1]; 80 mg (N = 258), in-window including a baseline and Week 52 biopsy): 42.2%
Fibrosis improvement at Week 52, % [1, 3]: (16.5) %
Fibrosis improvement at Week 52, no. [1, 3]: 52
NASH resolution at Week 52, % [1, 3]: (19.6) %
NASH resolution at Week 52, no. [1, 3]: 62
% Response, Fibrosis improvement [1, 4]: 24.2%
% Response, NASH resolution [1, 4]: 25.9%
Fibrosis improvement, Consensus (sensitivity), % Difference from PBO ([1]; 80 mg, Week 52): 12.2%
Fibrosis improvement, Consensus (sensitivity), % Response ([1]; 80 mg, Week 52): 24.4%
Fibrosis improvement, Multiple imputation (sensitivity), % Difference from PBO ([1]; 80 mg, Week 52): 11.4%
Fibrosis improvement, Multiple imputation (sensitivity), % Response ([1]; 80 mg, Week 52): 29.2%
NASH resolution, Consensus (sensitivity), % Difference from PBO ([1]; 80 mg, Week 52): 16.8%
NASH resolution, Consensus (sensitivity), % Response ([1]; 80 mg, Week 52): 24.4%
NASH resolution, Multiple imputation (sensitivity), % Difference from PBO ([1]; 80 mg, Week 52): 17.7%
NASH resolution, Multiple imputation (sensitivity), % Response ([1]; 80 mg, Week 52): 31.0%
Fibrosis improvement at Week 52, % [1, 5]: (68.0) %
Fibrosis improvement at Week 52, no. [1, 5]: 215
NASH resolution at Week 52, % [1, 5]: (67.7) %
NASH resolution at Week 52, no. [1, 5]: 214
Fibrosis improvement at Week 52, % [1, 6]: (8.9) %
Fibrosis improvement at Week 52, no. [1, 6]: 28
NASH resolution at Week 52, % [1, 6]: (5.1) %
NASH resolution at Week 52, no. [1, 6]: 16
Fibrosis improvement at Week 52, % [1, 7]: (6.6) %
Fibrosis improvement at Week 52, no. [1, 7]: 21
NASH resolution at Week 52, % [1, 7]: (7.6) %
NASH resolution at Week 52, no. [1, 7]: 24
Difference in percentage of responders, CMH, resmetirom group - placebo, NASH resolution ([1]; 80 mg, Week 52): 17.5
Difference in percentage of responders, CMH, resmetirom group - placebo, fibrosis improvement ([1]; 80 mg, Week 52): 9.7
OR of resmetirom group to placebo, NASH resolution ([1]; 80 mg, Week 52): 3.5
OR of resmetirom group to placebo, fibrosis improvement ([1]; 80 mg, Week 52): 2.0
% Response, Fibrosis improvement [1, 8]: 33.5%
% Response, NASH resolution [1, 8]: 38.7%
% Response, NASH resolution OR fibrosis improvement ([1]; 100 mg (N = 248), in-window including a baseline and Week 52 biopsy): 50.4%
Fibrosis improvement at Week 52, % [1, 9]: (15.9) %
Fibrosis improvement at Week 52, no. [1, 9]: 51
NASH resolution at Week 52, % [1, 9]: (19.3) %
NASH resolution at Week 52, no. [1, 9]: 62
% Response, Fibrosis improvement [1, 10]: 25.9%
% Response, NASH resolution [1, 10]: 29.9%
Fibrosis improvement, Consensus (sensitivity), % Difference from PBO ([1]; 100 mg, Week 52): 13.4%
Fibrosis improvement, Consensus (sensitivity), % Response ([1]; 100 mg, Week 52): 25.5%
Fibrosis improvement, Multiple imputation (sensitivity), % Difference from PBO ([1]; 100 mg, Week 52): 14.1%
Fibrosis improvement, Multiple imputation (sensitivity), % Response ([1]; 100 mg, Week 52): 31.9%
NASH resolution, Consensus (sensitivity), % Difference from PBO ([1]; 100 mg, Week 52): 20.7%
NASH resolution, Consensus (sensitivity), % Response ([1]; 100 mg, Week 52): 27.7%
NASH resolution, Multiple imputation (sensitivity), % Difference from PBO ([1]; 100 mg, Week 52): 23.2%
NASH resolution, Multiple imputation (sensitivity), % Response ([1]; 100 mg, Week 52): 36.0%
Fibrosis improvement at Week 52, % [1, 11]: (64.2) %
Fibrosis improvement at Week 52, no. [1, 11]: 206
NASH resolution at Week 52, % [1, 11]: (59.5) %
NASH resolution at Week 52, no. [1, 11]: 191
Fibrosis improvement at Week 52, % [1, 12]: (9.3) %
Fibrosis improvement at Week 52, no. [1, 12]: 30
NASH resolution at Week 52, % [1, 12]: (4.0) %
NASH resolution at Week 52, no. [1, 12]: 13
Fibrosis improvement at Week 52, % [1, 13]: (10.6) %
Fibrosis improvement at Week 52, no. [1, 13]: 34
NASH resolution at Week 52, % [1, 13]: (17.1) %
NASH resolution at Week 52, no. [1, 13]: 55
Difference in percentage of responders, CMH, resmetirom group - placebo, NASH resolution ([1]; 100 mg, Week 52): 21.3
Difference in percentage of responders, CMH, resmetirom group - placebo, fibrosis improvement ([1]; 100 mg, Week 52): 11.0
OR of resmetirom group to placebo, NASH resolution ([1]; 100 mg, Week 52): 4.2
OR of resmetirom group to placebo, fibrosis improvement ([1]; 100 mg, Week 52): 2.1
% Difference Resmetirom 80 mg from PBO, Fibrosis improvement [1, 14]: 13.6%
% Difference Resmetirom 80 mg from PBO, NASH resolution [1, 14]: 20.9%
% Difference Resmetirom 100 mg from PBO, Fibrosis improvement [1, 14]: 17.2%
% Difference Resmetirom 100 mg from PBO, NASH resolution [1, 14]: 28.6%
% Difference Resmetirom 80 mg from PBO, NASH resolution OR fibrosis improvement [1, 15]: 23.1%
% Difference Resmetirom 100 mg from PBO, NASH resolution OR fibrosis improvement [1, 15]: 31.2%
% Difference Resmetirom 80 mg from PBO, Fibrosis improvement [1, 16]: 10.2%
% Difference Resmetirom 80 mg from PBO, NASH resolution [1, 16]: 16.4%
% Difference Resmetirom 100 mg from PBO, Fibrosis improvement [1, 16]: 11.8%
% Difference Resmetirom 100 mg from PBO, NASH resolution [1, 16]: 20.7%
% Difference Resmetirom 80 mg from PBO, Fibrosis improvement [1, 17]: 8.8%
% Difference Resmetirom 100 mg from PBO, Fibrosis improvement [1, 17]: 10.4%
% Difference Resmetirom 80 mg from PBO, Fibrosis improvement [1, 18]: 7.5%
% Difference Resmetirom 100 mg from PBO, Fibrosis improvement [1, 18]: 9.1%
% Difference Resmetirom 80 mg from PBO, Fibrosis improvement [1, 19]: 6.9%
% Difference Resmetirom 100 mg from PBO, Fibrosis improvement [1, 19]: 8.5%
% Difference Resmetirom 80 mg from PBO, Fibrosis improvement [1, 20]: 6.2%
% Difference Resmetirom 80 mg from PBO, NASH resolution [1, 20]: 12.4%
% Difference Resmetirom 100 mg from PBO, Fibrosis improvement [1, 20]: 7.8%
% Difference Resmetirom 100 mg from PBO, NASH resolution [1, 20]: 16.7%
% Difference Resmetirom 80 mg from PBO, Fibrosis improvement [1, 21]: 5.5%
% Difference Resmetirom 100 mg from PBO, Fibrosis improvement [1, 21]: 7.1%
% Difference Resmetirom 80 mg from PBO, NASH resolution [1, 22]: 8.3%
% Difference Resmetirom 100 mg from PBO, NASH resolution [1, 22]: 12.7%
% Difference Resmetirom 80 mg from PBO, NASH resolution [1, 23]: 7.4%
% Difference Resmetirom 100 mg from PBO, NASH resolution [1, 23]: 11.7%
% Difference Resmetirom 80 mg from PBO, NASH resolution [1, 24]: 4.2%
% Difference Resmetirom 100 mg from PBO, NASH resolution [1, 24]: 18.6%
% Difference Resmetirom 80 mg from PBO, NASH resolution [1, 25]: 2.6%
% Difference Resmetirom 100 mg from PBO, NASH resolution [1, 25]: 7.0%
metabolizing CYP enzymes (CYP2C8): metabolized by CYP2C8 and is not metabolized by other cytrochrome P450 (CYP) enzymes
